In EP3693362B1, “PARASITIC PLANT GERMINATION REGULATOR” (National University Corporation Tokai National Higher …, priority 2017, dated 2019):
Like-named read-outs stand apart in the source and are kept apart here.

Tests used:
HTL5 = target: T1, HTL5 (Striga hermonthica, UniProt A0A0M5I297); assay: Affinity for strigolactone receptor, YLG probe competition (fluorescence); type: binding; conditions: competition with YLG, test range 0.01 to 10 µM, pH 7.0, read-out: IC50 values of test compounds
T1 sequence (A0A0M5I297 1-271): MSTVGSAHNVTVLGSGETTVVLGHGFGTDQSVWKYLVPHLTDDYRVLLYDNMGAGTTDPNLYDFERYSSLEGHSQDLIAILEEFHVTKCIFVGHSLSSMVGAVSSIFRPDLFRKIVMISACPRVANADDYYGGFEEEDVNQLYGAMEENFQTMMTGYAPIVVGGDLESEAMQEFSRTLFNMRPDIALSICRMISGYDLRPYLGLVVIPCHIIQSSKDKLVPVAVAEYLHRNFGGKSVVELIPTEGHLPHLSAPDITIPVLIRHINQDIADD
Method: (§1) PTL 1 reports that the affinity of a test compound for the strigolactone receptor can be evaluated by reacting strigolactone with a probe for evaluation of affinity for a strigolactone receptor (e.g., YLG) in the presence of the test compound, and measuring the fluorescence emitted from the decomposition product of YLG. Therefore, the compounds synthesized in Example 1 were used as the test compounds, and the affinity for the strigolactone receptor was evaluated by a similar method to the above. The details are as follows.
(§2) An Arabidopsis thaliana strigolactone receptor (AtD14) was produced in accordance with a usual method. More specifically, cDNA of the receptor was obtained by RT-PCR, and expression and purification were carried out in E. coli. Additionally, Striga strigolactone receptors were produced by the method disclosed in PTL 1 (ShHTL1: amino acid SEQ ID NO: 1, ShHTL2: amino acid SEQ ID NO: 2, ShHTL3: amino acid SEQ ID NO: 3, ShHTL4: amino acid SEQ ID NO: 4, ShHTL5: amino acid SEQ ID NO: 5, ShHTLS: amino acid SEQ ID NO: 6, ShHTL7: amino acid SEQ ID NO: 7, ShHTLS: amino acid SEQ ID NO: 8, ShHTL9: amino acid SEQ ID NO: 9, ShHTL10: amino acid SEQ ID NO: 10, and ShHTL11: amino acid SEQ ID NO: 11.)
(§3) One hundred microliters of a reaction solution containing each of the obtained strigolactone receptors ([…]), YLG (final concentration: […]), and each of the test compounds (final concentration: 0.01 to 10 µM) or the control compound (5-deoxystrigol, final concentration: 0.01 to 10 µM) as a competitive compound (100 mM HEPES, 150 mM NaCl, pH: 7.0, 0.1% DMSO) was prepared and reacted in a 96 black-well plate (Greiner). Sixty after the initiation of the reaction, fluorescence was detected at an excitation wavelength of 480 nm and a detection wavelength of 520 nm using a fluorescence detector (SpectraMax i3, manufactured by Molecular Devices), and the fluorescence intensity was measured. Based on the measurement results of fluorescence intensity, a Lineweaver-Burk plot was created to calculate the Km values, and the IC50 values of each of the test compounds and the control compound, which are competitive compounds.
(§4) In Table 7, HTL1 to HTL11 refer to strigolactone receptors (SEQ ID NOs: 1 to 11), and AtD14 refer to the Arabidopsis thaliana strigolactone receptor.

HTL9 = target: T2, HTL9 (Striga hermonthica, UniProt A0A0M4AGW0); assay: as above; type: binding; conditions: competition with YLG, test range 0.01 to 10 µM, pH 7.0, read-out: IC50 values of test compounds
T2 sequence (A0A0M4AGW0 1-271): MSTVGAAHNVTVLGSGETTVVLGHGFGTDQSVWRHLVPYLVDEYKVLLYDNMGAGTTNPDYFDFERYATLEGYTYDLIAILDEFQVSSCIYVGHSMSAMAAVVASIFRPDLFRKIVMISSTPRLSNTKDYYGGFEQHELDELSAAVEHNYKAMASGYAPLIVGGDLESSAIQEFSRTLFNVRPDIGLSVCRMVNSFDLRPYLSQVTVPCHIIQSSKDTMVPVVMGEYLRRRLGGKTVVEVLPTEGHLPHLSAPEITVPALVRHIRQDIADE
Method: as §1, §2, §3, §4

AtD14 = target: T3, AtD14 (Arabidopsis thaliana, UniProt Q9SQR3); assay: as above; type: binding
T3 construct: made in house; host or cells: E. coli
T3 sequence (Q9SQR3 1-267): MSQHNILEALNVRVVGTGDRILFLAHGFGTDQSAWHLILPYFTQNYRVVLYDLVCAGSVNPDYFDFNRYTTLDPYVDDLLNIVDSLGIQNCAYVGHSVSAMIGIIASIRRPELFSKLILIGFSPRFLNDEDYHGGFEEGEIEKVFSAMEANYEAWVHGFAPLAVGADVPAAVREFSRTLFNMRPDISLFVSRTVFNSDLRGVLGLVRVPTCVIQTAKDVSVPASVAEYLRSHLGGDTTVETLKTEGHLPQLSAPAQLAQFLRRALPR
Text: as §1, with “Therefore, the compounds synthesized in Example 1 were used as the test compounds, and the affinity for the strigolactone receptor was evaluated by a similar method to the above.” left out
as §2
as §3, with “measured.” for “measured. Based on the measurement results of fluorescence intensity, a Lineweaver-Burk plot was created to calculate the Km values, and the IC50 values of each of the test compounds and the control compound, which are competitive compounds.”

Striga hermonthica = assay: Parasitic plant germination induction test (Striga hermonthica seeds); type: in vivo; conditions: in the dark for 2 days; for Germination rate 0.1 nM: compound concentration 0.1 nM; for Germination rate 1 nM: compound concentration 1 nM; for Germination rate 10 nM: compound concentration 10 nM
Method: A parasitic plant germination induction test was conducted using the compounds synthesized in Example 1 as test compounds. The seeds of a parasitic plant (Striga hermonthica, Orobanche minor, or Phelipanche aegyptiaca) were suspended in sterilized ultrapure water, and this was dispensed in an amount of 100 µL each (containing about 20 seeds) into a 96-well plate. The test compounds or control compounds (Comparison Compound 1 or synthetic Strigolactone (GR^24: Comparison Compound 2)) dissolved in DMSO were individually added thereto to a final concentration of these compounds of 10 nM to 1 fM (1 × 10^-8 to 1 × 10^-15 M), and allowed to stand in the dark for 2 days. The presence or absence of germination was observed using a microscope, and the germination rate (i.e., number of germinated seeds/total number of seeds) was measured. The higher the germination rate in the parasitic plant germination induction test, or the higher the germination rate at lower concentration, the higher the Striga germination inducing activity.
In Tables 1 to 6, the concentrations (10 nM, 1 nM, and 0.1 nM) represent compound concentrations. In Tables 1-6, the evaluation criteria for the compounds are as follows: • ++: germination rate of 20% or more • +: germination rate of 5% or more and less than 20% • -: germination rate of less than 5% Table 1

[1] = AtD14, competition with YLG, test range 0.01 to 10 µM, pH 7.0, read-out: IC50 values of test compounds

Row | SMILES | IC50 (HTL5) [µM] | IC50 (HTL9) [µM] | IC50 (AtD14; [1]) [µM] | Germination rate 0.1 nM (Striga hermonthica) | Germination rate 1 nM (Striga hermonthica) | Germination rate 10 nM (Striga hermonthica) | IC50 (AtD14) [µM]
1 | CC1=CC(OC=C2C(=O)OC3C4=C(CCCC4(C)C)CC23)OC1=O (centres unmarked) [5-Ddeoxystriqol, 5-deoxystrigol, reference compound] | 3.6 | 1.2 | 0.44 |  |  |  | 
2 | CC1=CC(OC(=O)NCc2ccccc2)OC1=O (centres unmarked) [Comparison Compound 1, reference compound] | > 10 | > 10 |  | - (germination rate of less than 5%) | - (germination rate of less than 5%) | - (germination rate of less than 5%) | 
3 | CCCCOc1ccc(S(=O)(=O)N2CCN(C(=O)OC3C=C(C)C(=O)O3)CC2)cc1 (centres unmarked) [Compound 1] | > 10 | > 10 |  | ++ (germination rate of 20% or more) | ++ (germination rate of 20% or more) | ++ (germination rate of 20% or more) | > 10
4 | CCCCOc1ccc(S(=O)(=O)N2CCN(C(=O)OC3C=CC(=O)O3)CC2)cc1 (centres unmarked) [Compound 13] | > 10 | > 10 | > 10 | + (germination rate of 5% or more and less than 20%) | ++ (germination rate of 20% or more) | ++ (germination rate of 20% or more) | 
